Measured values published in PMC10496123, “Potent Antifungal Activity of Penta-O-galloyl-β-D-Glucose against Drug-Resistant Candida albicans, Candida auris, and Other Non-albicans Candida Species” (ACS Infectious Diseases, 2023).
≈ marks a conversion by molar mass, not a printed value.

How the values were obtained:
[1] = system: Candida albicans; experiment: Growth inhibition by CLSI microbroth dilution; type: cell-based; details: Candida albicans, >90% growth inhibition, 48 h
[2] = system: Candida parapsilosis; experiment: Growth inhibition by CLSI microbroth dilution; type: cell-based; details: 48 h, >90% growth inhibition
[3] = system: Candida glabrata; experiment: Growth inhibition by CLSI microbroth dilution; type: cell-based; details: Nakaseomyces glabratus, 48 h, >90% growth inhibition
[4] = system: Candida auris; experiment: Growth inhibition by CLSI microbroth dilution; type: cell-based; details: Candidozyma auris, 48 h
[5] = system: C. albicans wild type (CAF2-1) and cdr1Δ/Δ cdr2Δ/Δ mdr1Δ/Δ flu1Δ/Δ; experiment: microbe, parasite or virus in culture; type: cell-based, Candida albicans; details: for MIC90: Candida albicans, 72 h, RPMI-1640, 72 h, 30 °C, OD600
[6] = system: C. albicans; design: method as in PMID 12760852; details: 6 months of treatment in vitro; cited from earlier work
[7] = system: Candida albicans; design: method as in PMID 15790671; details: addition of both Fe^2+ and Fe^3+; cited from earlier work
[8] = system: C. albicans wild type (SN95, SN152) and ire1Δ/Δ, hap43Δ/Δ, rim101Δ/Δ; experiment: microbe, parasite or virus in culture; type: cell-based, Candida albicans; details: mutants versus wild type
[9] = strain AR Bank #0381, >90% growth inhibition
[10] = strain AR Bank #0387, >90% growth inhibition
[11] = strain AR Bank #0390, >90% growth inhibition

Row | Molecule | MIC ([1]; ATCC90028, strain ATCC 90028) [µg/mL] | MIC ([1]; strain MH12) [µg/mL] | MIC ([2]; strain AR Bank #0335) [µg/mL] | MIC ([2]; strain AR Bank #0337) [µg/mL] | MIC ([2]; strain AR Bank #0338) [µg/mL] | MIC ([2]; strain AR Bank #0339) [µg/mL] | MIC ([3]; strain AR Bank #0325) [µg/mL] | MIC ([3]; strain AR Bank #0326) [µg/mL] | MIC [4, 9] [µg/mL] | MIC [4, 10] [µg/mL] | MIC [4, 11] [µg/mL] | MIC90 ([5]; Wild type (CAF2-1)) [µg/mL] | MIC90 ([5]; cdr1Δ/Δ cdr2Δ/Δ mdr1Δ/Δ flu1Δ/Δ) [µg/mL] | Effect of absence of major efflux pumps (CDR1, CDR2, FLU1, MDR1) on sensitivity ([5]; mutant versus wild type) | Development of resistance [6] | Antifungal activity on addition of iron [7] | Effect of deletion of IRE1, HAP43 and RIM101 on sensitivity [8]
1 | C[C@@H]1[C@H](O)[C@@H](C)/C=C/C=C/C=C/C=C/C=C/C=C/C=C/[C@H](O[C@@H]2O[C@H](C)[C@@H](O)[C@H](N)[C@@H]2O)C[C@@H]2O[C@](O)(C[C@@H](O)C[C@@H](O)[C@H](O)CC[C@@H](O)C[C@@H](O)CC(=O)O[C@H]1C)C[C@H](O)[C@H]2C(=O)O [AMB, amphotericin B] | 1 (≈ 1.08 µM) | 1 (≈ 1.08 µM) | 1 (≈ 1.08 µM) | 1 (≈ 1.08 µM) | 1 (≈ 1.08 µM) | 2 (≈ 2.16 µM) | 1 (≈ 1.08 µM) | 1 (≈ 1.08 µM) | 1 (≈ 1.08 µM) | 0.5 (≈ 0.541 µM) | 2 (≈ 2.16 µM) | – | – | – | – | – | –
2 | OC(Cn1cncn1)(Cn1cncn1)c1ccc(F)cc1F [FLC, fluconazole] | 0.25 (≈ 0.816 µM) | > 8 | > 8 | > 8 | > 8 | > 8 | > 8 | 4 (≈ 13.1 µM) | 4 (≈ 13.1 µM) | 1 (≈ 3.27 µM) | > 8 | > 5 | 0.16 (≈ 0.522 µM) | hypersensitivity | – | – | –
3 | CC(=O)N1CCN(c2ccc(OCC3COC(Cn4ccnc4)(c4ccc(Cl)cc4Cl)O3)cc2)CC1 (stereo not drawn) [KTC, ketoconazole] | < 0.0039 | 1 (≈ 1.88 µM) | 4 (≈ 7.53 µM) | 2 (≈ 3.76 µM) | 0.5 (≈ 0.941 µM) | 0.25 (≈ 0.47 µM) | 4 (≈ 7.53 µM) | 0.25 (≈ 0.47 µM) | < 0.0039 | < 0.0039 | 0.5 (≈ 0.941 µM) | – | – | – | – | – | –
4 | Cc1cc(C2CCCCC2)n(O)c(=O)c1 [ciclopirox] | – | – | – | – | – | – | – | – | – | – | – | – | – | – | did not develop | abrogated | –
5 | bathophenanthrolinedisulfonate [BPS, reference compound] | – | – | – | – | – | – | – | – | – | – | – | – | – | – | – | – | hypersensitive
